Assay: In vitro human liver microsomal stability assay
Assay type: in vitro ADME
Details: human liver microsomes 0.5 mg/mL protein, NADPH 2 mM, pH 7.4, 1 μM test compound, 37 °C, 0-45 min; change relative to non-deuterated (d0) comparative compound
Method: In Vitro Liver Microsomal Stability Assay
Human liver microsomal stability assays were conducted at 0.5 mg per mL liver microsome protein with NADPH (2 mM, pH 7.4). Test compounds were prepared as solutions in DMSO and added to the assay mixture (1 μM, final concentration in incubation) to be incubated at 37±1° C. Reactions were initiated with the addition of cofactor and are stopped at 0, 5, 15, 30, and 45 min after cofactor addition with stop reagent (acetonitrile). After quenching, plates containing samples are vibrated for 10 min (600 rpm/min) and then centrifuged at 5594 g for 15 min. Supernatant fractions were analyzed by LC-MS/MS to determine the percent remaining and estimate the degradation half-life of the test compounds.

Row | SMILES | Clearance % change over d0 [%] | Half-life % change over d0 [%]
1 | [2H]C([2H])(NCC1(F)CCN(C(=O)c2ccc(F)c(Cl)c2)CC1)c1ncc(C)cn1 [Example 9, (3-chloro-4-fluorophenyl)(4-fluoro-4-((((5-methylpyrimidin-2-yl)methyl-d2)amino)methyl)piperidin-1-yl)methanone] | 3.7 | −3.5
2 | [2H]C([2H])([2H])c1ccc(CNCC2(F)CCN(C(=O)c3ccc(F)c(Cl)c3)CC2)nc1 [Example 3, (3-chloro-4-fluorophenyl)(4-fluoro-4-((((5-(methyl-d3)pyridin-2-yl)methyl)amino)methyl)piperidin-1-yl)methanone] | −5. | 5.6
3 | [2H]C([2H])(NCC1(F)CCN(C(=O)c2ccc(F)c(Cl)c2)CC1)c1ccc(C)cn1 [Example 5, (3-chloro-4-fluorophenyl)(4-fluoro-4-((((5-methylpyridin-2-yl)methyl-d2)amino)methyl)piperidin-1-yl)methanone] | −6.7 | 7.2
4 | Cc1cnc(CNCC2(F)CCN(C(=O)c3ccc(F)c(Cl)c3)CC2)nc1 [Example 8, (3-chloro-4-fluorophenyl)(4-fluoro-4-((((5-methylpyrimidin-2-yl)methyl)amino)methyl)piperidin-1-yl)methanone, reference compound] | 0 | 0
5 | [2H]C([2H])([2H])c1cnc(C([2H])([2H])NCC2(F)CCN(C(=O)c3ccc(F)c(Cl)c3)CC2)nc1 [Example 11, (3-chloro-4-fluorophenyl)(4-fluoro-4-((((5-(methyl-d3)pyrimidin-2-yl)methyl-d2)amino)methyl)piperidin-1-yl)methanone] | 5.5 | −5.2
6 | [2H]C([2H])([2H])c1ccc(C([2H])([2H])NCC2(F)CCN(C(=O)c3ccc(F)c(Cl)c3)CC2)nc1 [Example 4, (3-chloro-4-fluorophenyl)(4-fluoro-4-((((5-(methyl-d3)pyridin-2-yl)methyl-d2)amino)methyl)piperidin-1-yl)methanone] | −5.1 | 5.4
7 | [2H]C([2H])([2H])c1ccc(C([2H])([2H])NC([2H])([2H])C2(F)CCN(C(=O)c3ccc(F)c(Cl)c3)CC2)nc1 [Example 6, (3-chloro-4-fluorophenyl)(4-fluoro-4-((((5-(methyl-d3)pyridin-2-yl)methyl-d2)amino)methyl-d2)piperidin-1-yl)methanone] | −9.1 | 10.0
8 | [2H]C([2H])([2H])c1cnc(CNCC2(F)CCN(C(=O)c3ccc(F)c(Cl)c3)CC2)nc1 [Example 10, (3-chloro-4-fluorophenyl)(4-fluoro-4-((((5-(methyl-d3)pyrimidin-2-yl)methyl)amino)methyl)piperidin-1-yl)methanone] | 8.4 | −7.7
9 | [2H]C([2H])(NCc1ncc(C)cn1)C1(F)CCN(C(=O)c2ccc(F)c(Cl)c2)CC1 [Example 12, (3-chloro-4-fluorophenyl)(4-fluoro-4-((((5-methylpyrimidin-2-yl)methyl)amino)methyl-d2)piperidin-1-yl)methanone] | 2.1 | −2.1

More lines, now with the values ahead:

Row | Clearance % change over d0 [%] | Half-life % change over d0 [%] | SMILES
10 | −7.5 | 8.4 | [2H]C([2H])(NCc1ccc(C)cn1)C1(F)CCN(C(=O)c2ccc(F)c(Cl)c2)CC1 [Example 2, (3-chloro-4-fluorophenyl)(4-fluoro-4-((((5-methylpyridin-2-yl)methyl)amino)methyl-d2)piperidin-1-yl)methanone]
11 | −5.8 | 6.2 | [2H]C(NCc1ccc(C)cn1)C1(F)C([2H])([2H])C([2H])([2H])N(C(=O)c2ccc(F)c(Cl)c2)C([2H])([2H])C1([2H])[2H] (centres unmarked) [Example 7, ([1-[(3-chloro-4-fluorophenyl)carbonyl]-4-fluoro(d8)piperidin-4-yl](d)methyl)[(5-methylpyridin-2-yl)methyl]amine]
12 | 0 | 0 | Cc1ccc(CNCC2(F)CCN(C(=O)c3ccc(F)c(Cl)c3)CC2)nc1 [Example 1, (3-chloro-4-fluorophenyl)(4-fluoro-4-((((5-methylpyridin-2-yl)methyl)amino)methyl)piperidin-1-yl)methanone, reference compound]
13 | −0.9 | 0.9 | [2H]C(NCc1ncc(C)cn1)C1(F)C([2H])([2H])C([2H])([2H])N(C(=O)c2ccc(F)c(Cl)c2)C([2H])([2H])C1([2H])[2H] (centres unmarked) [Example 13, ([1-[(3-chloro-4-fluorophenyl)carbonyl]-4-fluoro(d8)piperidin-4-yl](d)methyl)[(5-methylpyrimidin-2-yl)methyl]amine]

From patent US10626105B2, “Deuterium-substituted pyridin- and pyrimidin-2-yl-methylamine compounds” (Auspex Pharmaceuticals, Inc., priority 2016, dated 2020)
